Test results as given in patent US20220213113A1, “NITROGEN-CONTAINING CONDENSED CYCLIC COMPOUNDS, FLUORESCENCE EMITTERS, ORGANIC ELECTROLUMINESCENT DEVICES, AND MATERIALS FOR ORGANIC ELECTROLUMINESCENT DEVICES” (Samsung Electronics Co., Ltd., priority 2020, published 2022).
Values after ≈ are worked out from the molar mass of the structure shown.

Test: Evaluation of solubility in mesitylene
Format: physicochemical
Conditions: organic solvent or mixture, thermodynamic from solid; 10 mg compound in test tube, heated at 160° C., mesitylene added until completely dissolved
Protocol: 10 mg of the obtained Compounds D1 to D9 and Comparative Compound C1 were each placed in a test tube, mesitylene was added thereto, and were heated at a temperature of 160° C. Mesitylene was added thereto until the compounds were completely dissolved and the solubility was calculated.
A solubility of 2000 µg/mL (≈ 3.12 mM) was found for `Cc1cc(C)c(-c2ccc3c(c2)c2c4c5ccccc5n5c6ccc(-c7c(C)cc(C)cc7C)cc6c(c6c7ccccc7n3c62)c45)c(C)c1` [Compound D1] in this work.
A solubility of 1300 µg/mL (≈ 1.94 mM) was found for `CC(C)(C)c1ccc(-c2ccc3c(c2)c2c4c5ccccc5n5c6ccc(-c7ccc(C(C)(C)C)cc7)cc6c(c6c7ccccc7n3c62)c45)cc1` [Compound D2] in this work.
A solubility of 1000 µg/mL (≈ 1.5 mM) was found for `CC(C)(C)c1ccc(-c2ccc3c4c5c6ccccc6n6c7cc(-c8ccc(C(C)(C)C)cc8)ccc7c(c7c8ccccc8n(c3c2)c74)c56)cc1` [Compound D3] in this work.
A solubility of 3200 µg/mL (≈ 4.1 mM) was found for `CC(C)(C)c1cc(-c2ccc3c4c5c6ccccc6n6c7cc(-c8cc(C(C)(C)C)cc(C(C)(C)C)c8)ccc7c(c7c8ccccc8n(c3c2)c74)c56)cc(C(C)(C)C)c1` [Compound D4] in this work.
A solubility of 10100 µg/mL (≈ 11.3 mM) was found for `CC(C)(C)c1cc(-c2ccc3c4c5c6ccc(C(C)(C)C)cc6n6c7cc(-c8cc(C(C)(C)C)cc(C(C)(C)C)c8)ccc7c(c7c8ccc(C(C)(C)C)cc8n(c3c2)c47)c56)cc(C(C)(C)C)c1` [Compound D5] in this work.
A solubility of 1000 µg/mL (≈ 1.12 mM) was found for `CC(C)(C)c1cc(-c2ccc3c4c5c6cc(C(C)(C)C)ccc6n6c7cc(-c8cc(C(C)(C)C)cc(C(C)(C)C)c8)ccc7c(c7c8cc(C(C)(C)C)ccc8n(c3c2)c74)c56)cc(C(C)(C)C)c1` [Compound D6] in this work.
A solubility of 3100 µg/mL (≈ 3.6 mM) was found for `c1ccc(-c2cccc(-c3ccccc3)c2-c2ccc3c4c5c6ccccc6n6c7cc(-c8c(-c9ccccc9)cccc8-c8ccccc8)ccc7c(c7c8ccccc8n(c3c2)c74)c56)cc1` [Compound D7] in this work.
A solubility of 10300 µg/mL (≈ 13.2 mM) was found for `CC(C)(C)c1cc(-c2cccc3c4c5c6ccccc6n6c7c(-c8cc(C(C)(C)C)cc(C(C)(C)C)c8)cccc7c(c7c8ccccc8n(c23)c74)c56)cc(C(C)(C)C)c1` [Compound D8] in this work.
A solubility of 3000 µg/mL (≈ 3.21 mM) was found for `CC(C)(C)c1cc(-c2ccc3c4c5c6cccc(-c7ccccc7)c6n6c7cc(-c8cc(C(C)(C)C)cc(C(C)(C)C)c8)ccc7c(c7c8cccc(-c9ccccc9)c8n(c3c2)c47)c56)cc(C(C)(C)C)c1` [Compound D9] in this work.
